Results as given in ChEMBL document CHEMBL1155245, “Diazen-1-ium-1,2-diolated nitric oxide donor ester prodrugs of 5-(4-carboxymethylphenyl)-1-(4-methanesulfonylphenyl)-3-trifluoromethyl-1H-pyrazole and its aminosulfonyl analog: Synthesis, biological evaluation and nitric oxide release studies” (Bioorg Med Chem, 2009).

Columns and labels:
Rattus norvegicus [1] = test: Antiinflammatory activity in po dosed rat assessed as inhibition of carrageenan-induced paw edema after 3 hrs; assay type: functional
[2] = biological target: T1, Prostaglandin G/H synthase 1 (Ovis aries, UniProt P05979)
T1 sequence (P05979 whole entry): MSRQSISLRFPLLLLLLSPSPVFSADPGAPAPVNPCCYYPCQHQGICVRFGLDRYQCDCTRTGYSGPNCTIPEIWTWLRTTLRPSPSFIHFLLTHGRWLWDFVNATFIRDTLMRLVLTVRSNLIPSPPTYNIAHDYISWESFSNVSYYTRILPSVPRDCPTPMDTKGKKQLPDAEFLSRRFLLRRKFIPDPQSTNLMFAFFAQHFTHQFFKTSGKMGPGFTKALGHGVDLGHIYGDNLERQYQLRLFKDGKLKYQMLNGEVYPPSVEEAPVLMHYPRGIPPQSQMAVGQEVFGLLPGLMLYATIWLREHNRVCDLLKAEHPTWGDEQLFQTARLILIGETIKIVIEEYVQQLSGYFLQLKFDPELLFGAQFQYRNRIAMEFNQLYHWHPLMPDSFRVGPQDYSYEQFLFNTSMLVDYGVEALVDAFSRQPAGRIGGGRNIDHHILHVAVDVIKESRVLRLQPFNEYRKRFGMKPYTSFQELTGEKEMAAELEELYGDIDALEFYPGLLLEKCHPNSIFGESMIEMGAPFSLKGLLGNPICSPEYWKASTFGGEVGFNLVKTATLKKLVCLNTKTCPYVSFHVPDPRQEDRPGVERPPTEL
Description: Inhibition of ovine COX1 by enzyme immunoassay

[3] = Induction of nitric oxide release in phosphate buffer at pH 7.4; assay type: physicochemical
Serum = test: Induction of nitric oxide release in rat serum containing phosphate buffer at pH 7.4; assay type: functional; parameters: concentration or dose not given beside the values
[4] = Selectivity ratio of IC50 for ovine COX1 to IC50 for human COX2
Rattus norvegicus [5] = organism: Rattus norvegicus; test: animal or person; assay type: functional; details: 3 h

SMILES	IC50 [2] [µM]	Activity [3] [%]	Ratio IC50 [4]	ED50 (Rattus norvegicus [1]) [µmol/kg]	Activity (Serum) [%]	inhibition in vivo at 113.8 µmol/kg (Rattus norvegicus [5]) [%]
CS(=O)(=O)c1ccc(-n2nc(C(F)(F)F)cc2-c2ccc(CC(=O)O)cc2)cc1	65.2			216		
CC(=O)OCO/N=[N+](\[O-])N1CCC[C@H]1COC(=O)Cc1ccc(-c2cc(C(F)(F)F)nn2-c2ccc(S(N)(=O)=O)cc2)cc1	13.4	5.4	14.4		59.6	46.5
CN(CCO)/[N+]([O-])=N\O		84.5			84.8	
NS(=O)(=O)c1ccc(-n2nc(C(F)(F)F)cc2-c2ccc(CC(=O)O)cc2)cc1	8.1			114		50
CC(=O)Oc1ccccc1C(=O)O [ASPIRIN]				714		
CC(=O)OCO/N=[N+](\[O-])N1CCC[C@H]1COC(=O)Cc1ccc(-c2cc(C(F)(F)F)nn2-c2ccc(S(C)(=O)=O)cc2)cc1	11.8	5			62.9	

Second part, led by results:

IC50 [2] [µM]	Activity [3] [%]	Ratio IC50 [4]	SMILES	ED50 (Rattus norvegicus [1]) [µmol/kg]	Activity (Serum) [%]	inhibition in vivo at 113.8 µmol/kg (Rattus norvegicus [5]) [%]
8.2	6.9		CC(=O)OCO/N=[N+](\[O-])N(C)CCOC(=O)Cc1ccc(-c2cc(C(F)(F)F)nn2-c2ccc(S(C)(=O)=O)cc2)cc1		72.2	
35.4	7.2		CC(=O)OCO/N=[N+](\[O-])N(C)CCOC(=O)Cc1ccc(-c2cc(C(F)(F)F)nn2-c2ccc(S(N)(=O)=O)cc2)cc1		74.6	55.8
	84.5		[O-]/[N+](=N\O)N1CCC[C@H]1CO		85	
